Data as given in patent publication US10188634B2, “3-(3H-imidazo[4,5-C]pyridin-2-yl)-1 H-pyrazolo[4,3-B]pyridines and therapeutic uses thereof” (Samumed, LLC, priority 2015, dated 2019).

Tests used:
Type in all cases: cell-based
[1] = tested on: LL29 cells (primary human fibroblasts derived from IPF patients) treated with TGF-β1, α-smooth muscle actin; test: Inhibition of the fibrotic process: αSMA staining in TGF-β1 treated primary human fibroblasts from IPF patients (LL29 cells); details: Fibroblast, 96 h; for EC50: LL29 cells treated with TGF-β1 (20 ng/mL), 4 days; for inhibition at 10 µM: LL29 cells treated with TGF-β1, 4 days, read-out: percent inhibition in brackets (given for EC50 >10 μM)
SW480 colon cancer cells = test: Cell viability assay (CellTiter-Blue) in SW480 colon cancer cells; details: Homo sapiens, 96 h; for inhibition at 10 µM: four days, CellTiter-Blue, read-out: percent inhibition at 10 μM (given for EC50 of >10 μM); for EC50: four days incubation, CellTiter-Blue cell viability
Method in brief: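 Four-day exposure of SW480 cells (~2×10^3/well) to compound from 10 μM down to 0.004 μM in 1:3 steps, in duplicate. Resorufin fluorescence from CellTiter-Blue after ~3 h served as the viability read-out. EC50 values came from nonlinear curve fits, with % inhibition at 10 μM given where EC50 >10 μM.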

IL-6 in THP-1 cells = test: Inhibition of IL-6 in LPS-stimulated THP-1 human monocyte cells (HTRF); details: IL-6 HTRF; for EC50: 500 ng/mL LPS, 22 hours; for inhibition at 10 µM: LPS, read-out: percent inhibition in brackets (given for EC50 >10 μM)
Method in brief: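 IL-6 was quantified by HTRF ratio after LPS (500 ng/mL, 22 h) stimulation of THP-1 monocytes pretreated 2 h with compound, 10-point 1:3 dilutions from 10 μM, 0.1% DMSO. Cells were held in 1% FBS for 24 h beforehand. Values normalised to DMSO; four-parameter EC50, or % inhibition at 10 μM above that.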

| Structure (SMILES) | EC50 (SW480 colon cancer cells) | EC50 (IL-6 in THP-1 cells) | EC50 [1] | inhibition at 10 µM [1] | inhibition at 10 µM (SW480 colon cancer cells) | inhibition at 10 µM (IL-6 in THP-1 cells) |
| --- | --- | --- | --- | --- | --- | --- |
| COc1cncc(-c2ccc3[nH]nc(-c4nc5c(-c6cccc(F)c6)cncc5[nH]4)c3n2)c1 [Compound 488, 3-(7-(3-Fluorophenyl)-3H-imidazo[4,5-c]pyridin-2-yl)-5-(5-methoxylpyridin-3-yl)-1H-pyrazolo[4,3-b]pyridine] | > 10 µM | > 10 µM | > 10 µM | 0% | 0% | 43% |
| O=C(CC1CCNCC1)Nc1cncc(-c2ccc3[nH]nc(-c4nc5c(-c6ccccn6)cncc5[nH]4)c3n2)c1 [Compound 565, 2-(Piperidin-4-yl)-N-(5-(3-(7-(pyridin-2-yl)-3H-imidazo[4,5-c]pyridin-2-yl)-1H-pyrazolo[4,3-b]pyridin-5-yl)pyridin-3-yl)acetamide] | > 10 µM | > 10 µM | 0.839 µM |  | 5.1% | 34.7% |
| c1ncc(-c2ccc3[nH]nc(-c4nc5c(N6CCCCC6)cncc5[nH]4)c3n2)cc1OCCN1CCCC1 [Compound 582, 3-(7-(Piperidin-1-yl)-3H-imidazo[4,5-c]pyridin-2-yl)-5-(5-(2-(pyrrolidin-1-yl)ethoxy)pyridin-3-yl)-1H-pyrazolo[4,3-b]pyridine] | > 10 µM | 1.63 µM | 3.32 µM |  | 15.8% |  |
| Oc1cncc(-c2ccc3[nH]nc(-c4nc5c(N6CCCCC6)cncc5[nH]4)c3n2)c1 [Compound 585, 5-(3-(7-(Piperidin-1-yl)-3H-imidazo[4,5-c]pyridin-2-yl)-1H-pyrazolo[4,3-b]pyridin-5-yl)pyridin-3-ol] | > 10 µM | 1.38 µM | > 10 µM | 39.1% | 2.4% |  |
| Cc1cn(-c2cncc3[nH]c(-c4n[nH]c5ccc(C6=CCNCC6)nc45)nc23)cn1 [Compound 590, 3-(7-(4-Methyl-1H-imidazol-1-yl)-3H-imidazo[4,5-c]pyridin-2-yl)-5-(1,2,3,6-tetrahydropyridin-4-yl)-1H-pyrazolo[4,3-b]pyridine] | > 10 µM | > 10 µM | > 10 µM | 36.8% | 10% | 11.5% |
| Cc1cn(-c2cncc3[nH]c(-c4n[nH]c5ccc(-c6cncc(OCCN(C)C)c6)nc45)nc23)cn1 [Compound 599, N,N-Dimethyl-2-((5-(3-(7-(4-methyl-1H-imidazol-1-yl)-3H-imidazo[4,5-c]pyridin-2-yl)-1H-pyrazolo[4,3-b]pyridin-5-yl)pyridin-3-yl)oxy)ethan-1-amine] | > 10 µM | > 10 µM | > 10 µM | 15.4% | 7.1% | 22.5% |
| CN1CCN(c2cncc3[nH]c(-c4n[nH]c5ccc(-c6cnccn6)nc45)nc23)CC1 [Compound 620, 3-(7-(4-Methylpiperazin-1-yl)-3H-imidazo[4,5-c]pyridin-2-yl)-5-(pyrazin-2-yl)-1H-pyrazolo[4,3-b]pyridine] | > 10 µM | > 10 µM | > 10 µM | 34.1% | 48.8% | 30.6% |
| O=C(CC1CCNCC1)Nc1cncc(-c2ccc3[nH]nc(-c4nc5c(-c6ccsc6)cncc5[nH]4)c3n2)c1 [Compound 629, 2-(Piperidin-4-yl)-N-(5-(3-(7-(thiophen-3-yl)-3H-imidazo[4,5-c]pyridin-2-yl)-1H-pyrazolo[4,3-b]pyridin-5-yl)pyridin-3-yl)acetamide] | > 10 µM | > 10 µM | 2.54 µM |  | 2.8% | 45.5% |

Continued, in another order:

| EC50 (SW480 colon cancer cells) | EC50 (IL-6 in THP-1 cells) | Structure (SMILES) | EC50 [1] | inhibition at 10 µM [1] | inhibition at 10 µM (SW480 colon cancer cells) | inhibition at 10 µM (IL-6 in THP-1 cells) |
| --- | --- | --- | --- | --- | --- | --- |
| 2.88 µM | > 10 µM | Cc1ncc(-c2ccc3[nH]nc(-c4nc5c(-c6ccoc6)cncc5[nH]4)c3n2)n1C [Compound 641, 5-(1,2-Dimethyl-1H-imidazol-5-yl)-3-(7-(furan-3-yl)-3H-imidazo[4,5-c]pyridin-2-yl)-1H-pyrazolo[4,3-b]pyridine] | > 10 µM | 0% |  | 8.9% |
| > 10 µM | > 10 µM | CC(C)CC(=O)Nc1cncc(-c2ccc3[nH]nc(-c4nc5c(-c6ccc(Cl)s6)cncc5[nH]4)c3n2)c1 [Compound 992, N-(5-(3-(7-(5-Chlorothiophen-2-yl)-3H-imidazo[4,5-c]pyridin-2-yl)-1H-pyrazolo[4,3-b]pyridin-5-yl)pyridin-3-yl)-3-methylbutanamide] | 2.29 µM |  | 25.1% | 29.8% |
| > 10 µM | > 10 µM | CC(C)(C)C(=O)Nc1cncc(-c2ccc3[nH]nc(-c4nc5c(-c6ccc(Cl)s6)cncc5[nH]4)c3n2)c1 [Compound 998, N-(5-(3-(7-(5-Chlorothiophen-2-yl)-3H-imidazo[4,5-c]pyridin-2-yl)-1H-pyrazolo[4,3-b]pyridin-5-yl)pyridin-3-yl)pivalamide] | 2.7 µM |  | 1.5% | 43% |
| 2.94 µM | > 10 µM | Clc1ccc(-c2cncc3[nH]c(-c4n[nH]c5ccc(-c6cncc(CN7CCCC7)c6)nc45)nc23)s1 [Compound 1004, 3-(7-(5-Chlorothiophen-2-yl)-3H-imidazo[4,5-c]pyridin-2-yl)-5-(5-(pyrrolidin-1-ylmethyl)pyridin-3-yl)-1H-pyrazolo[4,3-b]pyridine] | 3.47 µM |  |  | 29.8% |
| 2.51 µM | > 10 µM | O=C(Nc1cncc(-c2ccc3[nH]nc(-c4nc5c(-c6ccc(Cl)s6)cncc5[nH]4)c3n2)c1)C1CCC1 [Compound 1011, N-(5-(3-(7-(5-Chlorothiophen-2-yl)-3H-imidazo[4,5-c]pyridin-2-yl)-1H-pyrazolo[4,3-b]pyridin-5-yl)pyridin-3-yl)cyclobutanecarboxamide] | 1.05 µM |  |  | 32.4% |
